Measured values from patent US9443060B2, “Method and system to provide personalized pharmaceutical compositions and dosages” (Volant Holdings GMBH, priority 2009, dated 2016).

Legend:
metabolic syndrome = experiment: FS index / neural net model of cardiovascular risk in metabolic syndrome patient populations; type: in vivo, human
Protocol: The FS index of MS comprises the following parameters: Fasting Blood Glucose, Fasting Insulin, HBA1c, BMI, AST, Triglycerides, Glucose Supply-Demand (S/D) index, and in certain cases, Proinsulin. Each parameter was mathematically arranged to increase as MS worsened, and weighted approximately equally in the prediction of MS progression and risk for CV events. […] FS index values were calculated from serial laboratory and clinical data over timeframes ranging between 2 and 10 years.
Neural Net Models and Data Display Methods. […] Unless otherwise stated, standard deviations (z-score) vs. time are presented in the individual and mean population graphics.
For purposes of analysis, clinical and laboratory parameters were converted into modified z-scores as follows: • A mean normal value (described as “mean” in the following) was selected based on review of literature and various published laboratory compendia. The Standard Deviation (SD) of each parameter was set to one half of the normal range. The modified z-score is calculated as follows: z=(Patient value−“mean”)/SD • On the graphs, the z-score is reported as the number of SD.
The FS index considered the following: Fasting Blood Glucose, Fasting Insulin, HBA1c, BMI, AST, Triglycerides, Glucose Supply-Demand (S/D) index, and in some cases Proinsulin. […] Each of these parameters was mathematically arranged to increase as Metabolic Syndrome worsened, and weighted approximately equally in the prediction of Metabolic Syndrome progression and risk for CV events.
The FS index was then applied to well-studied patient populations using a neural net model.
[formula] Where FBG is Fasting Blood Glucose in mg/dl and normal value is 100 mg/dl TG is Triglycerides in mg/dl normal value is <150 HBA1c is hemoglobin A1c in %, normal value is <6% BMI is body mass index as kg/m2 where a normal value is 20 and obese begins above 25 AST is Aspartate Transferase also called SGOT in IU/liter and a normal value is 5-50 FB insulin is fasting Blood insulin concentration in nmol/liter, a normal value is 4.0

[1] = system: hepatic gluconeogenesis (GNG); set-up: endogenous glucose output: unit not given here; conditions: Gastaldelli, euglycemic hyperinsulinemic clamp, plasma insulin 113±6 μU/ml, T2D, cited from earlier work
[2] = initiation of insulin in T2D patients; duration and intensity dependent; cited from earlier work

**Q.** With N[C@@H](CC(=O)N1CCn2c(nnc2C(F)(F)F)C1)Cc1cc(F)c(F)cc1F [Sitagliptin] as the molecule, how does the “FS index response to treatment” value (metabolic syndrome; normal 20-50, 61 T2D on metformin, 100 RYGB, 18 Brake, 33 exenatide, 12 sitagliptin patients) read?
**A.** beneficial response to the diabetes component of metabolic syndrome

**Q.** And the “other parameters of metabolic syndrome (BMI/weight, HBSD, lipids, NAFLD, blood pressure, insulin)” value (metabolic syndrome; same patient populations as FS index)?
**A.** weight slowly increases or stays the same, lipid abnormalities do not resolve and NAFLD abnormalities do not resolve

**Q.** With insulin as the molecule, how does the “plasma C5:^2H2O ratio” value ([1]; basal 0.60±0.02) read?
**A.** 0.25±0.02

**Q.** What about the endogenous glucose output ([1]; basal 15.2±0.4) of the same molecule?
**A.** 7.1±0.9

**Q.** What about the weight gain [2] of the same molecule?
**A.** 5-10%
